Measurements published in US8092790B2, “Methods of making formulations to affect insect behavior and/or bird behavior” (Bug Buster, Ltd., priority 2003, dated 2012).

Tests used:
[1] = tested on: T. coloratus; conditions: in vivo; cited from earlier work
[2] = tested on: banded sunflower moth (Cochylis hospes), sunflower seed head larvae; assay: Sunflower field application, seed head larvae; type: in vivo; conditions: BIRDSHIELD at 0.006%, approx. two weeks after ASANA; within a minute of application
Description: An insecticide such as ASANA™ (active ingredient esfenvalerate) is suitable for use in controlling banded sunflower moth (Cochylis hospes). An exemplary composition that included an exemplary compound, methyl anthranilate (e.g., BIRDSHIELD™), was applied to sunflowers.
An insecticide, ASANA™, was applied to sunflowers. Approximately two weeks later, an exemplary compound, methyl anthranilate (e.g., BIRDSHIELD™ at 0.006%) was applied to the same sunflowers. […] This behavior caused the larvae to fall off of the flower portions of the sunflowers. In addition, the exemplary compound affected behavior of other insects on the treated sunflowers.

[3] = tested on: ants; assay: Treatment of ground to form a boundary; conditions: in vivo
Description: An exemplary method includes applying an exemplary compound or composition to the ground to thereby discourage insect traffic or deposition of insect semiochemicals. For example, where an exemplary compound is applied to the ground, the ground is not readily further marked by an insect semiochemical. A trial was performed where an exemplary compound (methyl anthranilate) was applied to the ground to form a boundary.

[4] = tested on: adult weevils; assay: Exemplary compound on sunflowers previously sprayed with esfenvalerate, weevils emerging; type: in vivo
Description: (§1) An exemplary compound, methyl anthranilate, was combined with long chain fatty acids. An exemplary method applied the mixture to fifteen maturing sunflowers in the interior of two fields that were previously sprayed with an insecticide, esfenvalerate (e.g., the insecticide product ASANA™). The mixture that included the exemplary compound was applied by spraying the mixture across the head of each flower (e.g., where seeds exist). The number of striped sunflower head moth larvae and weevils, emerging from the seeds, was recorded.

[5] = tested on: Ceranisus menes; conditions: in vivo; cited from earlier work
[6] = tested on: birds; assay: Container placed in aircraft hanger; type: in vivo; conditions: 2.5 gallon HDPE container at least partially filled
[7] = tested on: striped sunflower head moth larvae; assay: Exemplary compound applied after exemplary composition, sunflowers; conditions: in vivo
Description: An exemplary compound, methyl anthranilate, was combined with long chain fatty acids. The exemplary compound, as mixed with the fatty acids, was applied to three fields of maturing sunflowers. Each of the fields had previously been treated with an exemplary composition that included an exemplary compound, methyl anthranilate (approx. 4.5 oz per acre mixed with long chain fatty acids) and an insecticide, in this example, esfenvalerate (approx. 8 oz per acre using the insecticide product ASANA™). Ten flowers were randomly selected from the interior of each field and one-half of the seed heads were sprayed with DEET and one-half sprayed with the exemplary compound at a concentration of approximately 0.00312% methyl anthranilate, which was in a mixture that included long chain fatty acids. Spraying sprayed across the head of each flower. The number of striped sunflower head moth larvae, emerging from the seeds, was recorded.

[8] = tested on: larvae in a laboratory growing medium; assay: Application to larvae in laboratory growing medium; type: in vivo; conditions: control group remained in growing medium
Description: Trials involved applying an exemplary compound to larvae in a laboratory growing medium.
An exemplary compound, methyl anthranilate (e.g., BIRDSHIELD™) was applied to insects that were first allowed to adapt to a laboratory environment. A control group of insects were not exposed to the exemplary compound.

[9] = tested on: ant nest; assay: Treatment of ant nest; type: in vivo; conditions: diluted form; about 24 hours post-application
Description: An exemplary method includes applying an exemplary compound or an exemplary composition to an insect nest.

[10] = tested on: insects; assay: Glue coated cardboard traps in a field; type: in vivo
Description: Trials were performed using an exemplary compound as part of a trapping device (e.g., a glue coated cardboard surface). Five traps were each treated with a 1 ml solution of 0.0156%, 0.03125%, 0.0625%, 0.125% and 0.25% methyl anthranilate, respectively. The treated traps were then placed at relatively random locations in a field. An untreated trap was placed adjacent to each treated trap and the number of insects adhered to each trap recorded as a function of time.

[11] = tested on: house flies (Drosophila melanogater); assay: Three-section Petri dish choice test; type: in vivo
Description: Colonies of house flies (Drosophila melanogater) were selected for subsequent placement in covered Petri dishes wherein each Petri dish was divided into three sections. One of the sections, a center section, was used as a control. An exemplary compound, methyl anthranilate (e.g., BIRDSHIELD™ at 0.006%) was applied to a piece of filter paper and placed in a first section while an […] (e.g., deionized water), was applied to another piece of filter paper and placed in second section. Flies were then released into the center control section and lids were placed on the Petri dishes.
More specifically, 100 captive flies were used and the sections were approximately equal in size, e.g., 33% of total space per section. Flies were released into the neutral zone of each Petri dish and monitored after 15 minutes and one hour.

[12] = tested on: striped sunflower head moth larvae; assay: Exemplary compound on sunflowers previously sprayed with esfenvalerate, moth larvae emerging; type: in vivo
Description: as §1

In the case of `COC(=O)c1ccccc1N` [methyl anthranilate], the “attraction of T. coloratus” value [1] is listed as “are attracted”, the “appearance of sunflower seed head larvae” value [2] is listed as “began to appear on the surface of the sunflowers” and the “crossing of treated ground boundary” value [3] is listed as “ants did not cross this boundary”. The “Number of Adult Weevils, Mean” value ([4]; Field No 2) was 1.14, the “Number of Adult Weevils, Total” value ([4]; Field No 2) was 8 and the “Number of Adult Weevils, Mean” value ([4]; Field No. 1) was 0.43. For the same compound, the “Number of Adult Weevils, Total” value ([4]; Field No. 1) was 3, the “attraction of Ceranisus menes” value [5] was “are attracted” and the “bird population in hanger” value [6] was “bird population dwindled”. For the same compound, the “surface guano on aircraft” value [6] was “significant drop in surface guano”, the “effectiveness when applied after an exemplary composition” value [7] was “high level of effectiveness” and the “behavior of exposed insects” value [8] was “emerged quickly from the laboratory growing medium”. The “ant activity at the site of the nest” value [9] was “no ant activity was observed”, the “number of insects adhered to trap” value ([10]; 0.0156 percent, 1 min) was 3 and the “number of insects adhered to trap” value ([10]; 0.0156 percent, 5 min) was 22. The “number of insects adhered to trap” value ([10]; 0.0156 percent, 10 min) was 75, the “number of insects adhered to trap” value ([10]; 0.0156 percent, 20 min) was greater than 75 and the “number of insects adhered to trap” value ([10]; 0.0313 percent, 1 min) was 5. The “number of insects adhered to trap” value ([10]; 0.0313 percent, 5 min) was 15, the “number of insects adhered to trap” value ([10]; 0.0313 percent, 10 min) was 68 and the “number of insects adhered to trap” value ([10]; 0.0313 percent, 20 min) was greater than 68. The “number of insects adhered to trap” value ([10]; 0.0625 percent, 1 min) was 7, the “number of insects adhered to trap” value ([10]; 0.0625 percent, 5 min) was 35 and the “number of insects adhered to trap” value ([10]; 0.0625 percent, 10 min) was 128. The “number of insects adhered to trap” value ([10]; 0.0625 percent, 20 min) was greater than 128, the “number of insects adhered to trap” value ([10]; 0.1250 percent, 1 min) was 15 and the “number of insects adhered to trap” value ([10]; 0.1250 percent, 5 min) was 62. For the same compound, the “number of insects adhered to trap” value ([10]; 0.1250 percent, 10 min) was 256, the “number of insects adhered to trap” value ([10]; 0.1250 percent, 20 min) was greater than 256 and the “number of insects adhered to trap” value ([10]; 0.2500 percent, 1 min) was 43. For the same compound, the “number of insects adhered to trap” value ([10]; 0.2500 percent, 5 min) was 84, the “number of insects adhered to trap” value ([10]; 0.2500 percent, 10 min) was 346 and the “number of insects adhered to trap” value ([10]; 0.2500 percent, 20 min) was greater than 346. For the same compound, the “fly response to treated section” value ([11]; 0.006% on filter paper, within one hour) was “avoided the section treated with the exemplary compound”, the “fly response to treated areas” value ([11]; approximately 0.00025%) was “relatively neutral” and the “fly response to treated areas” value ([11]; approximately 0.0025%) was “somewhat neutral”. The “fly response to treated areas” value ([11]; approximately 0.025%) was “avoided the treated areas”, the “fly response to treated areas” value ([11]; approximately 0.25%, 100 flies, monitored after 15 minutes and one hour) was “avoided the treated areas” and the “Number of Moth Larvae, Mean” value ([12]; Field No 2) was 0.86. For the same compound, the “Number of Moth Larvae, Total” value ([12]; Field No 2) was 6, the “Number of Moth Larvae, Mean” value ([12]; Field No. 1) was 0.57 and the “Number of Moth Larvae, Total” value ([12]; Field No. 1) was 4. For the same compound, the “drawing larvae and weevils out of the seeds” value ([12]; after the crop had been treated with the insecticide alone) was “successful in drawing striped sunflower head math larvae out of the seeds”.
